Laboratory results published in patent publication US11505558B1, “Antiviral heterocyclic compounds” (Enanta Pharmaceuticals, Inc., priority 2019, dated 2022).

System: genotype A, "Long" strain RSV
Assay: RSV-A assay (CPE, ATPlite readout in Hep-2 cells)
Format: cell-based
Settings: human respiratory syncytial virus, HEp-2, Hep-2 cells, genotype A "Long" strain RSV, MOI 0.1; read-out: Human RSV-A (“Long” strain) EC50
Procedure, shortened: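 Protection from RSV-induced cytopathic effect, measured as ATPlite luminescence after 5 days, gave EC50 values. Assay used genotype A Long strain at MOI 0.1 on Hep-2 cells seeded at 8,000/well in DMEM growth media with 10% FBS; compounds tested as 2-fold dilutions in duplicate.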

| SMILES | EC50 [nM] |
| --- | --- |
| COc1cc(C(=O)NC[C@](O)(c2cc3c(c(-c4ccc(F)cc4)n2)OC[C@]3(C)C(N)=O)C(F)(F)F)ccc1-c1coc(C)n1 [Example 197] | > 200 |
| Cc1nc(COc2cc(C(=O)NC[C@](O)(c3cc4c(c(-c5ccc(F)cc5)n3)OC[C@]4(C)C(N)=O)C(F)(F)F)cc3cccnc23)co1 [Example 391] | > 200 |
| Cc1cnc2c(OCC(N)=O)cc(C(=O)NC[C@](O)(c3cc4c(c(-c5ccc(F)cc5)n3)OC[C@]4(C)C(=O)NCC(C)(C)O)C(F)(F)F)cc2c1 [Example 507] | < 200 |
| C[C@]1(C(N)=O)COc2c1cc([C@@](O)(CNC(=O)c1ccc(OC3CC3)c(-c3cnc(C(F)(F)F)nc3)c1)C(F)(F)F)nc2-c1ccc(F)cc1 [Example 111] | > 200 |
| Cc1nocc1-c1ccc(C(=O)NC[C@](O)(c2cc3c(c(-c4ccc(F)cc4)n2)OC[C@]3(C)C(N)=O)C(F)(F)F)cc1OC1CC1 [Example 181] | < 200 |
| C[C@]1(C(N)=O)COc2c1cc([C@@](O)(CNC(=O)c1cnc3ccccc3n1)C(F)(F)F)nc2-c1ccc(F)cc1 [Example 237] | > 200 |
| COc1cc(C(=O)NC[C@](O)(c2cc3c(c(-c4ccc(F)cc4)n2)OC[C@]3(C)C(N)=O)C(F)(F)F)ccc1OCCN1CCN(C)CC1 [Example 190] | > 200 |
| C[C@]1(C(N)=O)COc2c1cc([C@@](O)(CNC(=O)c1ccc3nc(NC4CC4)sc3c1)C(F)(F)F)nc2-c1ccc(F)cc1 [Example 440] | < 200 |
| CC(=O)NCCCNC(=O)[C@@]1(C)COc2c1cc([C@@](O)(CNC(=O)c1cc(OC3CC3)c3ncccc3c1)C(F)(F)F)nc2-c1ccc(F)cc1 [Example 455] | < 200 |
| C[C@]1(C(N)=O)COc2c1cc([C@@](O)(CNC(=O)c1ccc(-c3ccc(C(F)(F)F)cn3)c(OC3CC3)c1)C(F)(F)F)nc2-c1ccc(F)cc1 [Example 156] | > 200 |
| C[C@]1(C(N)=O)COc2c1cc([C@@](O)(CNC(=O)c1ccc(-c3nccs3)c(OC3CC3)c1)C(F)(F)F)nc2-c1ccc(F)cc1 [Example 173] | > 200 |
| C[C@]1(C(N)=O)COc2c1cc([C@@](O)(CNC(=O)c1ccc(-c3ccc(C(F)(F)F)nc3)c(OC3CC3)c1)C(F)(F)F)nc2-c1ccc(F)cc1 [Example 147] | > 200 |
| C[C@]1(C(N)=O)COc2c1cc([C@@](O)(CNC(=O)c1ccc3ncccc3c1Cl)C(F)(F)F)nc2-c1ccc(F)cc1 [Example 240] | > 200 |
| C[C@]1(C(N)=O)COc2c1cc([C@@](O)(CNC(=O)c1cnc3ncccc3c1)C(F)(F)F)nc2-c1ccc(F)cc1 [Example 239] | < 200 |
| Cc1cc(-c2nc([C@@](O)(CNC(=O)c3ccc4nc(N)sc4c3)C(F)(F)F)cc3c2OC[C@]3(C)C(=O)NCC(C)(C)O)ccc1F [Example 505] | < 200 |
| COc1cc(C(=O)NC[C@](O)(c2cc3c(c(-c4ccc(Cl)c(F)c4)n2)OC[C@]3(C)C(N)=O)C(F)(F)F)cc2cc(C)cnc12 [Example 260] | < 200 |
| C[C@]1(C(N)=O)COc2c1cc([C@@](O)(CNC(=O)c1ccc3ncc(=O)[nH]c3c1)C(F)(F)F)nc2-c1ccc(F)cc1 [Example 327] | > 200 |
| C[C@]1(C(N)=O)COc2c1cc([C@@](O)(CNC(=O)c1cc(C(F)(F)F)c3ncccc3c1)C(F)(F)F)nc2-c1ccc(F)cc1 [Example 64] | < 200 |
| Cc1cnc2c(OCC(N)=O)cc(C(=O)NC[C@](O)(c3cc4c(c(-c5ccc(F)c(Cl)c5)n3)OC[C@]4(C)C(N)=O)C(F)(F)F)cc2c1 [Example 367] | < 200 |
| C[C@]1(C(N)=O)COc2c1cc([C@@](O)(CNC(=O)c1cc(NC(=O)C(F)F)c3ncccc3c1)C(F)(F)F)nc2-c1ccc(F)cc1 [Example 396] | < 200 |
| Cc1cnc(-c2ccc(C(=O)NC[C@](O)(c3cc4c(c(-c5ccc(F)cc5)n3)OC[C@]4(C)C(N)=O)C(F)(F)F)cc2OC2CC2)cn1 [Example 167] | > 200 |
| Cc1cc2cc(C(=O)NC[C@](O)(c3cc4c(c(-c5ccc(F)cc5)n3)OC[C@]4(C)C(N)=O)C(F)(F)F)cc(NC(=O)NC3COC3)c2nc1C [Example 660] | < 200 |
| C[C@]1(C(=O)NCCCc2ccccc2)COc2c1cc([C@@](O)(CNC(=O)c1cc(OC3CC3)c3ncccc3c1)C(F)(F)F)nc2-c1ccc(F)cc1 [Example 487] | > 200 |
| C[C@]1(CNCC2CC2)COc2c1cc([C@@](O)(CNC(=O)c1ccc(OC(F)F)c(OCC3CC3)c1)C(F)(F)F)nc2-c1ccc(F)cc1 [Example 33] | > 200 |
| C[C@]1(C(N)=O)COc2c1cc([C@@](O)(CNC(=O)c1ccc(-c3cscn3)c(OC3CC3)c1)C(F)(F)F)nc2-c1ccc(F)cc1 [Example 174] | > 200 |
| C[C@]1(CNCC2CC2)COc2c1cc([C@@](O)(CNC(=O)c1ccc3c(c1)OCCN3)C(F)(F)F)nc2-c1ccc(F)cc1 [Example 38] | > 200 |
| C[C@]1(C(N)=O)COc2c1cc([C@@](O)(CNC(=O)c1ccc3nccnc3c1)C(F)(F)F)nc2-c1ccc(F)cc1 [Example 234] | > 200 |
| COc1cc(C(=O)NC[C@](O)(c2cc3c(c(-c4ccc(F)cc4)n2)OC[C@]3(C)CNC2CC2)C(F)(F)F)ccc1OC1CC1 [Example 17] | < 200 |

| SMILES | EC50 [nM] |
| --- | --- |
| CCc1ccc2cc(C(=O)NC[C@](O)(c3cc4c(c(-c5ccc(F)cc5)n3)OC[C@]4(C)C(N)=O)C(F)(F)F)cc(O)c2n1 [Example 272] | > 200 |
| C[C@]1(C(N)=O)COc2c1cc([C@@](O)(CNC(=O)c1ccc(-c3ccnnc3)c(OC3CC3)c1)C(F)(F)F)nc2-c1ccc(F)cc1 [Example 168] | < 200 |
| C[C@]1(C(N)=O)COc2c1cc([C@@](O)(CNC(=O)c1cc(NC(=O)NC3CNC3)c3ncccc3c1)C(F)(F)F)nc2-c1ccc(F)cc1 [Example 413] | > 200 |
| CNC(=O)COc1cc(C(=O)NC[C@](O)(c2cc3c(c(-c4ccc(F)cc4)n2)OC[C@]3(C)C(N)=O)C(F)(F)F)cc2cccnc12 [Example 372] | < 200 |
| CC(C)(O)COc1cc(C(=O)NC[C@](O)(c2cc3c(c(-c4ccc(F)cc4)n2)OC[C@]3(C)C(N)=O)C(F)(F)F)cc2cccnc12 [Example 270] | > 200 |
| C[C@]1(C(N)=O)COc2c1cc([C@@](O)(CNC(=O)c1ccc(OC3CC3)c(-c3cscn3)c1)C(F)(F)F)nc2-c1ccc(F)cc1 [Example 128] | < 200 |
| CCc1cnc2c(OCC(N)=O)cc(C(=O)NC[C@](O)(c3cc4c(c(-c5ccc(F)cc5)n3)OC[C@]4(C)C(N)=O)C(F)(F)F)cc2c1 [Example 368] | < 200 |
| COc1ncc(-c2ccc(C(=O)NC[C@](O)(c3cc4c(c(-c5ccc(F)cc5)n3)OC[C@]4(C)C(N)=O)C(F)(F)F)cc2OC2CC2)s1 [Example 177] | > 200 |
| Cc1ccc2cc(C(=O)NC[C@](O)(c3cc4c(c(-c5ccc(F)cc5)n3)OC[C@]4(C)C(N)=O)C(F)(F)F)cc(O)c2n1 [Example 226] | < 200 |
| C[C@]1(C(N)=O)COc2c1cc([C@@](O)(CNC(=O)c1cc3ccccc3[nH]1)C(F)(F)F)nc2-c1ccc(F)cc1 [Example 599] | > 200 |
| CC(=O)NCCOc1cc(C(=O)NC[C@](O)(c2cc3c(c(-c4ccc(F)cc4)n2)OC[C@]3(C)C(N)=O)C(F)(F)F)cc2cccnc12 [Example 357] | > 200 |
| COc1cccc(CC(=O)NC[C@](O)(c2cc3c(c(-c4ccc(F)cc4)n2)OC[C@]3(C)C(N)=O)C(F)(F)F)c1 [Example 594] | > 200 |
| C[C@]1(C(N)=O)COc2c1cc([C@@](O)(CNC(=O)c1ccc3c(c1)NC(=O)CO3)C(F)(F)F)nc2-c1ccc(F)cc1 [Example 313] | > 200 |
| CN1Cc2cc(C(=O)NC[C@](O)(c3cc4c(c(-c5ccc(F)c(Cl)c5)n3)OC[C@]4(C)C(N)=O)C(F)(F)F)ccc2C1=O [Example 646] | < 200 |
| C[C@]1(C(=O)NCC2(O)CC2)COc2c1cc([C@@](O)(CNC(=O)c1cc(OC3CC3)c3ncccc3c1)C(F)(F)F)nc2-c1ccc(F)cc1 [Example 489] | < 200 |
| C[C@]1(C(N)=O)COc2c1cc([C@@](O)(CNC(=O)c1ccc(F)c(OC3CC3)c1)C(F)(F)F)nc2-c1ccc(F)cc1 [Example 294] | < 200 |
| C[C@]1(C(=O)NCCC2(O)CC2)COc2c1cc([C@@](O)(CNC(=O)c1cc(OC3CC3)c3ncccc3c1)C(F)(F)F)nc2-c1ccc(F)cc1 [Example 491] | < 200 |
| COc1cc(C(=O)NC[C@](O)(c2cc3c(c(-c4ccc(F)cc4)n2)OC[C@]3(C)C(N)=O)C(F)(F)F)ccc1OCCN1CCOCC1 [Example 188] | > 200 |
| C[C@]1(C(N)=O)COc2c1cc([C@@](O)(CNC(=O)c1cc(OC3CC3)c3[nH]c(=O)ccc3c1)C(F)(F)F)nc2-c1ccc(F)cc1 [Example 584] | < 200 |
| CNc1cc(C(=O)NC[C@](O)(c2cc3c(c(-c4ccc(F)cc4)n2)OC[C@]3(C)C(N)=O)C(F)(F)F)cc2cccnc12 [Example 385] | < 200 |
| C[C@]1(C(N)=O)COc2c1cc([C@@](O)(CNC(=O)c1ccc3ccccc3n1)C(F)(F)F)nc2-c1ccc(F)cc1 [Example 243] | > 200 |
| COc1cc(C(=O)NCC(O)(c2cc3c(c(-c4ccc(F)cc4)n2)OC[C@]3(C)CNCC2CC2)C(F)(F)F)cc2cccnc12 (stereo partly shown) [Example 25] | < 200 |
| COc1cc(C(=O)NC[C@](O)(c2cc3c(c(-c4ccc(C)cc4)n2)OC[C@]3(C)C(N)=O)C(F)(F)F)cc2sc(N)nc12 [Example 435] | < 200 |
| C[C@]1(C(N)=O)COc2c1cc([C@@](O)(CNC(=O)c1ccc(OC3CC3)c(-c3ccc(C(F)(F)F)nc3)c1)C(F)(F)F)nc2-c1ccc(F)cc1 [Example 118] | > 200 |
| C[C@]1(C(N)=O)COc2c1cc([C@@](O)(CNC(=O)c1ccc(C#N)c(F)c1)C(F)(F)F)nc2-c1ccc(F)cc1 [Example 320] | > 200 |
| Cn1cc2cc(C(=O)NC[C@](O)(c3cc4c(c(-c5ccc(F)cc5)n3)OC[C@]4(C)C(N)=O)C(F)(F)F)ccc2n1 [Example 637] | < 200 |
| C[C@]1(C(N)=O)COc2c1cc([C@@](O)(CNC(=O)c1cc(NC(=O)[C@@H]3CCN3)c3ncccc3c1)C(F)(F)F)nc2-c1ccc(F)cc1 [Example 400] | > 200 |
